Measurements: patent US20240376068A1, “SIGMA LIGAND COMPOUNDS AND USES THEREOF” (Minerva Neurosciences, Inc., priority 2020, published 2024)
Read-outs that look alike come from different tables or passages of the source.

Assays:
[1] = target: T1, α1d (h) (Homo sapiens (Human), UniProt P25100); test: α1D adrenergic antagonist effect assay; type: cell-based; details: CHO cells
[2] = target: T2, α1a (h) (Homo sapiens (Human), UniProt P35348); test: α1A adrenergic antagonist effect assay; type: cell-based; details: for IC50: antagonist effect, CHO cells; for inhibition at 1 µM: α1A(h) antagonist effect, read-out: % inhibition of control values (1 μM)
T2 sequence (P35348 whole entry): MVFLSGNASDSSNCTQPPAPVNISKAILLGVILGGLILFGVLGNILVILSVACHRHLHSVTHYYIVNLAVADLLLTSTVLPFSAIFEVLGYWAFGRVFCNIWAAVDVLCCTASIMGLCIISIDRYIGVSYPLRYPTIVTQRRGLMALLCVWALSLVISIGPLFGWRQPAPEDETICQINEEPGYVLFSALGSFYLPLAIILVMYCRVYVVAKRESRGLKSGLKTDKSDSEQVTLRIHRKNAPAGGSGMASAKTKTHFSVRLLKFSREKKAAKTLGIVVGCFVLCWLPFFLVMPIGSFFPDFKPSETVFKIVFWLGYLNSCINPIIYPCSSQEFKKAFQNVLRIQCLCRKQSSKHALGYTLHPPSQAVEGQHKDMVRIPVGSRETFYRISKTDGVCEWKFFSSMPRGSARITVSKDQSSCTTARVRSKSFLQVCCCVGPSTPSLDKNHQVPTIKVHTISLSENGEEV
Procedure: Assays for determining the antagonist effect on α1A (h) were performed according to the procedure described in Example 21, and the results are represented in Table E below. […] No antagonist effect is observed for the other compounds.

[3] = target: hERG (Homo sapiens (Human), UniProt Q12809); test: hERG inhibition assay
Sequence of hERG (Q12809 whole entry): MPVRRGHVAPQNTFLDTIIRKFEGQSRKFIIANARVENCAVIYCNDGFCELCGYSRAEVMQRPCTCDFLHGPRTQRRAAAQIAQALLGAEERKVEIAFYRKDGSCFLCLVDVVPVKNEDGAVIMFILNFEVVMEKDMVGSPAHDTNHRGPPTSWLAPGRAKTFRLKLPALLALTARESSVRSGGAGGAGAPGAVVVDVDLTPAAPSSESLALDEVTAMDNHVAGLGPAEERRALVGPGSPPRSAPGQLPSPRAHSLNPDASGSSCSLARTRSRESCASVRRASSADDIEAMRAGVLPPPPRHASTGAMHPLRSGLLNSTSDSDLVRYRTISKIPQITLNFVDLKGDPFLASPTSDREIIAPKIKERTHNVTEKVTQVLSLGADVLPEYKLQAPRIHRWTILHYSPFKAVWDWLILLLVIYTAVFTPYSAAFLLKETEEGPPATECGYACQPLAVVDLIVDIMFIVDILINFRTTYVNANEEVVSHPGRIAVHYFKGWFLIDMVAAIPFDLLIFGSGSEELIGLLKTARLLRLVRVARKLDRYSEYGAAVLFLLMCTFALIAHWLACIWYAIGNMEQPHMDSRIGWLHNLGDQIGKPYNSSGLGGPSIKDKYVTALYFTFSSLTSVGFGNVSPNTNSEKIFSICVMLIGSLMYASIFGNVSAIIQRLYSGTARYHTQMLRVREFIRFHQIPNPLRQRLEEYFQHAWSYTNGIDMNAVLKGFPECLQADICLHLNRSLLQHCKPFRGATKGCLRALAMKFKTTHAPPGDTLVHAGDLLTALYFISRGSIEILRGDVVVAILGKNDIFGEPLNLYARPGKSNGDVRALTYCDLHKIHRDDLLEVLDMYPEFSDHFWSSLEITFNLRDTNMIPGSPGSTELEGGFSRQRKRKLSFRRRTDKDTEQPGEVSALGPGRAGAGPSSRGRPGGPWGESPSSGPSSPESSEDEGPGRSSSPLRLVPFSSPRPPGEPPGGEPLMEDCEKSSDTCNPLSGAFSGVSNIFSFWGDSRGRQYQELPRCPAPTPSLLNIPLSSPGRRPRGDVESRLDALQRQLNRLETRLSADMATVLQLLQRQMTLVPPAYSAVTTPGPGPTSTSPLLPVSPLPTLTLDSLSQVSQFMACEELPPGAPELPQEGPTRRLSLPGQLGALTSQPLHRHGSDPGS

[4] = target: 5-HT2A (h) (Homo sapiens (Human), UniProt P28223); test: 5-HT2A binding assay; details: antagonist radioligand, HEK-293 cells
Sequence of 5-HT2A (h) (P28223 whole entry): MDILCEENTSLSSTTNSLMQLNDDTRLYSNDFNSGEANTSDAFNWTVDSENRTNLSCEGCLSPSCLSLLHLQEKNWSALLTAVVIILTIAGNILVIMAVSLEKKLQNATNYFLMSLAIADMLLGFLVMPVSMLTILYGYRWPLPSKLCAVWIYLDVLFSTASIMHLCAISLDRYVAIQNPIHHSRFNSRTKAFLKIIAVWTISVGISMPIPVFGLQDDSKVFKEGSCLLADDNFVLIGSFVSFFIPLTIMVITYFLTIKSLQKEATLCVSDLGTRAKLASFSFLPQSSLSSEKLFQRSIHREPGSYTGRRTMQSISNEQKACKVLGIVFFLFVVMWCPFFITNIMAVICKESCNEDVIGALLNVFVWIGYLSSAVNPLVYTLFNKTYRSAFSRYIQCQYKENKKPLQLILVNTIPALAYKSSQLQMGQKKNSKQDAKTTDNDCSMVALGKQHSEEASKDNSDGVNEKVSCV
Procedure: Assays for determining 5-HT2A binding values were performed according to: Bonhaus, D. W. et al. (1995), Brit. J. Pharmacol., 115:622-628; Schwinn, D. A. et al. (1995), J. Pharmacol. Exp. Ther., 272:134-142; and Vicentic, A. et al. (2002), J. Pharmacol. Exp. Ther., 302:58-65; Bylund D B et al. (1994), Pharmacol. Rev. 46:121-136. Each of which is incorporated by reference in its entirety.

[5] = target: T3, α1b (h) (Homo sapiens (Human), UniProt P35368); test: α1B adrenergic antagonist effect assay; type: cell-based; details: CHO cells
T3 sequence (P35368 whole entry): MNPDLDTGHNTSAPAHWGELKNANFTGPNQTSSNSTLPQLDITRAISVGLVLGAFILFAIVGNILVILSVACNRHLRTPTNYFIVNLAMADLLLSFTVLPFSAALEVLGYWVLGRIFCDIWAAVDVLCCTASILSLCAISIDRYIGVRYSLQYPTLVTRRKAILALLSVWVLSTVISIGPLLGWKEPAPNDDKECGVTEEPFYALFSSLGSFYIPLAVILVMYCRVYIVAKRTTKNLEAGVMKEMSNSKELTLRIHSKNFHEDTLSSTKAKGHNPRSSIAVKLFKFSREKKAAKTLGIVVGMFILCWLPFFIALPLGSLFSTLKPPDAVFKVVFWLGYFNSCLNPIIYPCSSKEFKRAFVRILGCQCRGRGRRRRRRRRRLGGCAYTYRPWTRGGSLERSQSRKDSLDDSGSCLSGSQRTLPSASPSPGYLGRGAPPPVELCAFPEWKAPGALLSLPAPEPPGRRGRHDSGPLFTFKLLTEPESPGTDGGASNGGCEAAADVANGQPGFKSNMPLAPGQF

[6] = target: T1, α1d (h); test: α1D adrenergic agonist effect assay; type: cell-based; details: CHO cells
[7] = target: T3, α1b (h); test: α1B adrenergic agonist effect assay; type: cell-based; details: CHO cells
[8] = tested on: Vero-E6 cell line; test: Toxicity evaluation on Vero-E6 cell line; type: cell-based; details: Vero E6, 50 μM to 0.37 μM, 72 h post treatment
Procedure: Day 1: Cell were seeded in 96 wells plate, Vero E6, P40, 10000 cells/well. Growth conditions included medium DMEM high glucose.
Day 2: Compounds were diluted in a mix of 50% DMSO and 50% growth medium to. 10 mM concentration was used for PB28 (10 mg vial from Tocris, 1-Cyclohexyl-4-(3-(5-methoxy-1,2,3,4-tetrahydronaphthalen-1-yl)-n-propyl)piperazine dihydrochloride, see Gordon et al. Nature 2020, 583, […]). Other compounds were prepared at 2 mM concentration stock solution. Cells were treated from 50 μM to 0.37 μM by serial dilution two-fold dilution in triplicate. Controls were designed to include the same concentration of DMSO for each tested products.
Day 5: For a 72 h post treatment, cells were fixed with formalin and stained with Hoetsch33342. Cells were imaged using a Cell Insight CX7 high content screening microscope. Number of cells and nuclear parameters were assessed using an internal cytotoxicity testing protocol.

[9] = target: Sigma 2 (h) (Homo sapiens (Human), UniProt Q5BJF2); test: Sigma-2 binding assay
Sequence of Sigma 2 (h) (Q5BJF2 whole entry): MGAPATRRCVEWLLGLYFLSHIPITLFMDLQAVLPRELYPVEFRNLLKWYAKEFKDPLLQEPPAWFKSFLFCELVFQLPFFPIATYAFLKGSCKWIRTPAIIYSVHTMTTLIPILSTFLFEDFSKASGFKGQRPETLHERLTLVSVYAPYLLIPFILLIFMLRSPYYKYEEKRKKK
Procedure: (§1) Assays for determining Sigma-1 and Sigma-2 binding values were performed according to Ganapathy, M. E. et al. (1999), J. Pharmacol. Exp. Ther., 289:251-260.

[10] = target: sigma 1 (h) (Homo sapiens (Human), UniProt Q99720); test: Sigma-1 binding assay
Sequence of sigma 1 (h) (Q99720 whole entry): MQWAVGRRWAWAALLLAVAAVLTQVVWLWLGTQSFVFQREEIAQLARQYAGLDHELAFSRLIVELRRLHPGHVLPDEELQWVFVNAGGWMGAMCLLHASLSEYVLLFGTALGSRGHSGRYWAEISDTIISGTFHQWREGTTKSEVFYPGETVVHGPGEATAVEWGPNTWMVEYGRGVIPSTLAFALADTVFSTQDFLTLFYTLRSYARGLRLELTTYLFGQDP
Procedure: as §1

[11] = target: T2, α1a (h); test: α1A adrenergic agonist effect assay; type: cell-based; details: for IC50: agonist effect, CHO cells; for activation at 1 µM: α1A(h) agonist effect, read-out: % stimulation relative to control (1 μM)
Procedure: Assays for determining the agonist effect on α1A (h) were performed according to the procedure described in Example 21, and the results are represented in Table D below.

[12] = target: 5HT2A (Homo sapiens (Human), UniProt P28223); test: 5HT2A agonist effect assay; type: cell-based; details: for activation at 0.1 µM: 100 nM, read-out: % stimulation relative to control (100 nM); for activation at 1 µM: read-out: % stimulation relative to control (1 μM)
Procedure: Assays for determining the agonist effect on 5HT2A were performed according to the procedure described in Example 21, and the results are represented in Table F below. The compounds in Table F have no agonist effect on 5HT2A at 1 μM and 100 nM.

[13] = target: dopamine D2S receptor (Homo sapiens (Human), UniProt P14416); test: Dopamine D2S receptor binding assay (Eurofins Cerep item 1322); details: [3H]7-OH-DPAT, read-out: % inhibition of control specific binding (1 μM)
Sequence of dopamine D2S receptor (P14416 other isoform, or with tags, fused parts or gaps): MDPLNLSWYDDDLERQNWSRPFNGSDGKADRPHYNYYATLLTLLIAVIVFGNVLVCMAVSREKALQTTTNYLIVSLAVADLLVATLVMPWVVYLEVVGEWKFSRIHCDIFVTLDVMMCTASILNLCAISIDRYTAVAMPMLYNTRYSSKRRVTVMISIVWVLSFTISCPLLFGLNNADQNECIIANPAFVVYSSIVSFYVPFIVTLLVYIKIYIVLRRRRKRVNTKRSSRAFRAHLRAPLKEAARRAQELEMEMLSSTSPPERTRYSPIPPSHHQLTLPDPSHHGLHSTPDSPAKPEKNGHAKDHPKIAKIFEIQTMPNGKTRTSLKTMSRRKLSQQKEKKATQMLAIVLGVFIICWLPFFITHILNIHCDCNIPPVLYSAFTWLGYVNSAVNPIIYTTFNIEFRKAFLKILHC
Procedure: Assays for determining dopamine D2S receptor binding values were performed according to Eurofins Cerep protocol item 1322 and the results are represented in Table C below. The parameters used for the assay are described below. […] Common antipsychotics, in contrast, block dopamine receptors (Keefe, et al., J Clin Psychiatry. 2018; 79 (3): 17m11753).

[14] = [3H]DTG (+1 μM (+)pentazocine), Jurkat cells, read-out: Sigma-2 Ki
[15] = [3H](+)pentazocine, Jurkat cells, read-out: Sigma-1 Ki

T1 sequence (P25100 whole entry): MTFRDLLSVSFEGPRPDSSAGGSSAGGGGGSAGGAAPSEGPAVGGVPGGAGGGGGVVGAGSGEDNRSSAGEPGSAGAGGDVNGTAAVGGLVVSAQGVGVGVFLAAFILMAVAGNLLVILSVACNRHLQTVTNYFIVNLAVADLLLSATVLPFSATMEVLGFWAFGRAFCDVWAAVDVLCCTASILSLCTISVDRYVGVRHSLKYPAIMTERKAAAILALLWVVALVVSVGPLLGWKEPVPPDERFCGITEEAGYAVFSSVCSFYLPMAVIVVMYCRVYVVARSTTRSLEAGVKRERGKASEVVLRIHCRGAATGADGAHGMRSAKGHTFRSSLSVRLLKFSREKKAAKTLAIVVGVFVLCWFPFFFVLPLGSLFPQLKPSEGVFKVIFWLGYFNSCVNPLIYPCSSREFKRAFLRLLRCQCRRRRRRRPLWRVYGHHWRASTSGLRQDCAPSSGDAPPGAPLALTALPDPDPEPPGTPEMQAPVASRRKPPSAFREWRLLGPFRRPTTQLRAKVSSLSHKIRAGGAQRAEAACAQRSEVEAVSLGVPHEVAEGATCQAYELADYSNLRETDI

Structure (SMILES)	IC50 [1] [nM]	IC50 [2] [nM]	IC50 [3] [nM]	IC50 [4] [nM]	IC50 [5] [nM]	IC50 [6] [nM]	IC50 [7] [nM]	cytotoxicity (cell number) [8]	Ki [9, 14] [nM]	Ki [10, 15] [nM]	IC50 [11] [nM]	Ki [9] [nM]	Ki [10] [nM]	inhibition at 1 µM [2] [%]	activation at 0.1 µM [12] [%]	activation at 1 µM [12] [%]	inhibition at 1 µM [13] [%]	activation at 1 µM [11] [%]
CCCN1CCN(c2ccc3c(c2)CN(C(=O)OCc2ccccc2)CC3(C)C)CC1 [Compound 2, benzyl 4,4-dimethyl-7-(4-propylpiperazin-1-yl)-3,4-dihydroisoquinoline-2(1H)-carboxylate]	> 1000	> 1000	> 3000	> 1000	> 1000	> 1000	> 1000	not cytotoxic	5 to 50	5 to 50	> 1000							
CC1(C)CCN(C2CCCC2)Cc2cc(-c3ccc(C(F)(F)F)cc3)ccc21 [Compound 10, 2-cyclopentyl-5,5-dimethyl-8-(4-(trifluoromethyl)phenyl)-2,3,4,5-tetrahydro-1H-benzo[c]azepine]	> 1000	> 1000	> 3000	> 1000	> 1000	> 1000	> 1000				> 1000	5 to 50	> 500					
CC(C)OC(=O)N1CCC(C)(C)c2ccc(N3CCN(C4CCCC4)CC3)cc2C1 [Compound 79, isopropyl 8-(4-cyclopentylpiperazin-1-yl)-5,5-dimethyl-1,3,4,5-tetrahydro-2H-benzo[c]azepine-2-carboxylate]			> 3000						5 to 50	0.1 to 5				13	1	0	19	0
CC1(C)CCN(S(=O)(=O)c2cccc(Cl)c2)Cc2cc(N3CCC(N4CCOCC4)CC3)ccc21 [Compound 80, 4-(1-(2-((3-chlorophenyl)sulfonyl)-5,5-dimethyl-2,3,4,5-tetrahydro-1H-benzo[c]azepin-8-yl)piperidin-4-yl)morpholine]			> 3000						50 to 100	0.1 to 5				15	0	1	4	0
